Source: PMC11464777, “Approved drugs successfully repurposed against Leishmania based on machine learning predictions” (Frontiers in Cellular and Infection Microbiology, 2024)
In brackets after ≈: the same amount, converted by molar mass. Read-outs that look alike come from different tables or passages of the source.

Assays:
[1] = tested on: L. infantum LV50 promastigotes; test: MTT-based promastigote viability assay, L. infantum LV50; format: cell-based; settings: Leishmania infantum
From the text: (§1) Three Tunisian laboratory strains already described ([Oualha et al., 2019]), originally isolated from distinct clinical manifestations were used in this study: (i) L. infantum LV50 MHOM/TN/94/LV50) strain originating from a bone marrow of a visceral leishmaniasis patient, (ii) L. infantum Drep-14 (MHOM/TN/96/Drep-14) strain isolated from a lesion of a sporadic cutaneous leishmaniasis patient and (iii) L. major Empa-12 (MHOM/TN/2012/Empa-12) strain isolated from a zoonotic cutaneous leishmaniasis patient. Stocks of these parasites obtained after passage through BALB/c mice were used as previously described ([Oualha et al., 2019]). Thawed cryopreserved parasites were cultured at 22°C in RPMI-1640/Glutamax medium (Gibco BRL, Germany) containing penicillin (100 U/mL) and streptomycin (100 μg/mL) supplemented with 10% heat-inactivated Fetal Bovine Serum (FBS) (Gibco BRL, Germany).
(§2) The effect of the selected compounds on the viability of Leishmania promastigotes was evaluated by a colorimetric MTT (3-(4,5-dimethylthiazol-2yl)-2,5-diphenyl tetrazolium bromide) assay. It consists in the reduction of tetrazolium salt to a […] crystal (blue formazan) by the succinate dehydrogenase activity of mitochondria in living cells, which can be quantified by spectrophotometry. Briefly, 90 μL of promastigotes (5 × 10^5 parasites/well) harvested from the stationary growth phase of each strain were added to a 96-well culture plate and incubated with 10 μL of a range of serial dilutions of the selected compounds in technical replicates (final concentration of 1% DMSO per well) ([Ioset et al., 2009]; [Harigua-Souiai et al., 2018]). […] After 72h of incubation at 22°C, 25 μl of MTT solution (5 mg/mL) was added to each well and incubated at 22°C for 4h. Then, 150 μl of DMSO was added to each well to dissolve the blue formazan and the optical density (OD) was measured at 570 nm with a microplate reader ([…], Labsystems). Promastigotes incubated in complete medium containing 1% DMSO were used as negative control. The standard anti-Leishmania drug, Amphotericin B was used as a positive control. All experiments were performed in two technical replicates and repeated three times in independent experiments. The mean percentage of promastigotes viability was calculated from the Optical Density at 570 nm as follows:
(§3) Promastigote viability (%)= [(ODcompound− ODblank)/(ODnegative control −ODblank)]*100
(§4) Results were expressed as the mean value of the percentage of promastigotes viability ± standard deviation (SD).

[2] = tested on: L. infantum Drep-14 promastigotes; test: microbe, parasite or virus in culture; format: cell-based; settings: Leishmania infantum
From the text: as §1, §2, §3, §4

[3] = tested on: L. major Empa-12 promastigotes; test: MTT-based promastigote viability assay, L. major Empa-12; format: cell-based; settings: Leishmania major
From the text: as §1, §2, §3, §4

[4] = Cytotoxicity assay towards THP-1-derived macrophages (MTT); format: cell-based, human; settings: human, THP-1-derived macrophages (PMA-differentiated); for CC50 at 72 h: 72 h of treatment, uninfected cells, MTT; for viability at 72 h, 200 µg/mL: at 200 µg/mL, read-out: Macrophage viability
Method: (§5) Louis, MO, USA). The PMA-treated THP-1 cells were maintained in this condition for 24 h, followed by a 24 h of rest period after the removal of PMA. […] The cytotoxicity towards THP-1-derived macrophages was assessed after 24, 48 and 72 hours of incubation by MTT assay as described above. […] The percentage of viable cells was calculated from the Optical Density at 570 nm as follows: […]

[5] = tested on: THP-1-derived macrophages; test: as above; format: cell-based, human; settings: 24, 48, 72 h
Method: as §5

[6] = tested on: L. infantum LV50 intracellular amastigotes; test: Anti-amastigote assay in THP-1-derived macrophages, L. infantum LV50; format: cell-based, Leishmania infantum; settings: for Selectivity Index (SI): CC50 THP-1 / IC50 amastigotes LV50, 72 h; for IC50: Leishmania infantum, Macrophage, LV50, intramacrophage, 72 h
Method: (§6) THP-1-derived macrophages (5 × 10^4/well) were seeded in each 8-well Labtek slides (Thermo Scientific). Adherent macrophages were obtained as described above, then infected with stationary phase promastigotes of each strain at a ratio 10:1 (10 parasites/macrophage) in RPMI medium containing penicillin (100 U/mL) and streptomycin (100 μg/mL) with 10% fetal bovine serum (Gibco, Brazil) at 37°C in 5% CO2 for 24 h. […] Non-infected control cells were incubated in a supplemented RPMI medium containing 1% DMSO. After 72h of incubation, cells were fixed and stained using May-Grunwald-Giemsa staining with RAL 555 Kit (RAL DIAGNOSTICS, France), following the manufacturer’s instructions. The percentage of infected cells and the total number of internalized parasites per 100 macrophages were determined under immersion oil (magnification of 1000X) using light microscopy. The percentage of amastigotes viability was expressed as the percentage of total number of internalized parasites within treated cells relative to the total number of internalized parasites within control cells treated with 1% DMSO, and calculated as follows:
(§7) Relative amastigote viability (%) = [(number of amastigotes/100 treated cells)/(number of amastigotes/100 treated cells with1% DMSO)] * 100
(§8) The relative percentage of amastigote viability was evaluated to calculate half inhibitory concentrations (IC50). The mean IC50 values were determined by plotting the curves of the logarithm of compound concentrations versus the relative amastigote viability of three independent experiments performed in two technical replicates for each compound fitted into a nonlinear regression model, using GraphPad Prism version 8.0.1. Selectivity Index (SI) values were calculated as the ratio between cytotoxicity and activity against amastigotes and determined for each compound as follows: SI= CC50/IC50.

[7] = tested on: L. infantum Drep-14 intracellular amastigotes; test: Anti-amastigote assay in THP-1-derived macrophages, L. infantum Drep-14; format: cell-based, Leishmania infantum; settings: for Selectivity Index (SI): CC50 THP-1 / IC50 amastigotes Drep-14, 72 h; for IC50: Leishmania infantum, Macrophage, Drep-14, intramacrophage, 72 h
Method: as §6, §7, §8

[8] = tested on: L. major Empa-12 intracellular amastigotes; test: Anti-amastigote assay in THP-1-derived macrophages, L. major Empa-12; format: cell-based, Leishmania major; settings: for Selectivity Index (SI): CC50 THP-1 / IC50 amastigotes Empa-12, 72 h; for IC50: Leishmania major, Macrophage, Empa-12, intramacrophage, 72 h
Method: as §6, §7, §8

[9] = tested on: L. infantum (LV50 and Drep-14) and L. major (Empa-12) promastigotes; test: MTT promastigote viability assay, stated across the three strains; format: cell-based, Leishmania infantum, Leishmania major; settings: 72 h; for IC50: Leishmania infantum, LV50, Drep-14, Empa-12, MTT, read-out: Promastigotes IC50, span over the three strains; for Effect on promastigote viability: three strains, at the tested concentrations
From the text: as §1, §2, §3, §4

[10] = tested on: L. major and L. infantum amastigotes; test: Anti-amastigote assay, stated across the three strains; format: cell-based, Leishmania infantum, Leishmania major
Method: as §6, §7, §8

[11] = LV50, 72 h, MTT, read-out: Promastigotes IC50
[12] = LV50, 72 h, MTT, read-out: Promastigotes IC50 (in brackets) (converted)
[13] = 72 h, read-out: Promastigotes IC50
[14] = 72 h, read-out: Promastigotes IC50 (in brackets)
[15] = Empa-12, 72 h, MTT, read-out: Promastigotes IC50
[16] = Empa-12, 72 h, MTT, read-out: Promastigotes IC50 (in brackets) (converted)
[17] = read-out: THP-1-derived macrophages CC50
[18] = read-out: THP-1-derived macrophages CC50 (in brackets) (converted)
[19] = read-out: Amastigotes IC50 (in brackets) (converted)

| SMILES | IC50 [1, 11] [µg/mL] | IC50 [1, 12] [µM] | IC50 [2, 13] [µg/mL] | IC50 [2, 14] [µM] | IC50 [3, 15] [µg/mL] | IC50 [3, 16] [µM] | CC50 at 72 h [4, 17] [µg/mL] | CC50 at 72 h [4, 18] [µM] | Cytotoxicity on THP-1-derived macrophages [5] | Selectivity Index (SI) [6] | IC50 ([6]; read-out: Amastigotes IC50) [µg/mL] | IC50 [6, 19] [µM] | Selectivity Index (SI) [7] | IC50 ([7]; read-out: Amastigotes IC50) [µg/mL] | IC50 [7, 19] [µM] | Selectivity Index (SI) [8] | IC50 ([8]; read-out: Amastigotes IC50) [µg/mL] | IC50 [8, 19] [µM] | IC50 [9] [µg/mL] | Effect on promastigote viability [9] | further results |
| --- | --- | --- | --- | --- | --- | --- | --- | --- | --- | --- | --- | --- | --- | --- | --- | --- | --- | --- | --- | --- | --- |
| CCCC(=O)Nc1ccc(OCC(O)CNC(C)C)c(C(C)=O)c1 (centres unmarked) [Acebutolol] | 146 ± 16.4 | 390 | 69.3 ± 5.7 | 186 | 103 ± 10.9 | 276 | > 200 | > 536 | no significant cytotoxicity | > 12.73 | 15.7 ± 2.75 | 42.1 | > 14.45 | 13.8 ± 1.41 | 37.1 | > 8.98 | 22.3 ± 1.59 | 59.8 | 69.3 to 146 (≈ 206 to 433 µM) | dose-dependent decrease of parasite viability | viability at 72 h, 200 µg/mL [4]: 90 to 100%; IC50 ([10]; 72 h, LV50, Drep-14, Empa-12; intramacrophage, 72 h; read-out: Amastigotes IC50, span over the three strains): 13.8 to 66.8 µg/mL (≈ 41.1 to 199 µM) |
| CCCSc1ccc2nc(NC(=O)OC)[nH]c2c1 [Albendazole] |  |  |  |  |  |  |  |  |  |  |  |  |  |  |  |  |  |  |  | no effectiveness |  |
| C[C@@H]1[C@H](O)[C@@H](C)/C=C/C=C/C=C/C=C/C=C/C=C/C=C/[C@H](O[C@@H]2O[C@H](C)[C@@H](O)[C@H](N)[C@@H]2O)C[C@@H]2O[C@](O)(C[C@@H](O)C[C@@H](O)[C@H](O)CC[C@@H](O)C[C@@H](O)CC(=O)O[C@H]1C)C[C@H](O)[C@H]2C(=O)O [Amphotericin B] | 0.15 ± 0.01 | 0.16 | 0.2 ± 0.004 | 0.22 | 0.2 ± 0.01 | 0.22 | > 5 | > 5.41 | no cytotoxic effect | > 166.66 | 0.03 ± 0.004 | 0.032 | > 125.00 | 0.04 ± 0.006 | 0.043 | > 100.00 | 0.05 ± 0.005 | 0.054 | 0.15 to 0.2 (≈ 0.162 to 0.216 µM) |  | IC50 ([10]; LV50, Drep-14, Empa-12; intramacrophage, 72 h; read-out: Amastigotes IC50, span over the three strains): 0.03 to 0.05 µg/mL (≈ 0.0325 to 0.0541 µM) |
| NS(=O)(=O)c1cc2c(cc1Cl)N=C(CSCc1ccccc1)NS2(=O)=O [Benzthiazide] |  |  |  |  |  |  |  |  |  |  |  |  |  |  |  |  |  |  |  | no effectiveness |  |
| C=C(CC)C(=O)c1ccc(OCC(=O)O)c(Cl)c1Cl [Ethacrynic acid] |  |  |  |  |  |  |  |  |  |  |  |  |  |  |  |  |  |  |  | no effectiveness |  |
| CCc1cc(C(N)=S)ccn1 [Ethionamide] |  |  |  |  |  |  |  |  |  |  |  |  |  |  |  |  |  |  |  | no effectiveness |  |
| Nc1nc(O)c2ncn(COC(CO)CO)c2n1 [Ganciclovir] |  |  |  |  |  |  |  |  |  |  |  |  |  |  |  |  |  |  |  | no effectiveness |  |
| CNC[C@H](O)c1cccc(O)c1 [Phenylephrine] | > 200 | > 1200 | > 200 | > 1200 | > 200 | > 1200 | > 200 | > 1200 | no significant cytotoxicity | > 5.68 | 35.2 ± 4.86 | 211 ± 174 | > 4.96 | 40.2 ± 3.15 | 241 ± 113 | > 2.99 | 66.8 ± 7.28 | 400 ± 260 | > 200 | dose-dependent decrease of parasite viability | IC50 ([1]; LV50, extrapolated beyond tested range (200 µg/mL), GraphPad, read-out: Promastigotes IC50 estimated through extrapolation): 219 ± 25.5 µg/mL; IC50 ([2]; read-out: Promastigotes IC50 estimated through extrapolation): 275 ± 36.6 µg/mL; IC50 ([3]; Empa-12, extrapolated beyond tested range (200 µg/mL), GraphPad, read-out: Promastigotes IC50 estimated through extrapolation): 266 ± 79.5 µg/mL; viability at 72 h, 200 µg/mL [4]: 90 to 100% |
